Key:
Caspase-3 = biological target: T1, Caspase-3 (Homo sapiens, UniProt P42574); test: In vitro inhibitory activity on Caspase-3 (BioVision Caspase-3 Inhibitor Screening Kit); type: biochemical; conditions: fluorogenic substrate 50 μM; test concentrations 1000 nM to 0.32 nM
T1 construct: purchased BioVision K153-100
T1 sequence (P42574 29-175 limits assumed): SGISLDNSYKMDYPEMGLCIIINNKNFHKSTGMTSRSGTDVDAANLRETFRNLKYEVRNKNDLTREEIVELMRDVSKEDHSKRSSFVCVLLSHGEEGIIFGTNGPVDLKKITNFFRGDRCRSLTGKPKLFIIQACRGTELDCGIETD
T1 sequence (P42574 176-277 limits assumed): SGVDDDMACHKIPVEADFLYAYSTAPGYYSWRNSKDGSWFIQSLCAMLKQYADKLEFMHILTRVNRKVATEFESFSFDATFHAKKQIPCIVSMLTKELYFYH
Protocol: (§1) Caspase Inhibitor Screening Kit for BioVision was used in this experiment to test the inhibitory activity of the test compounds on Caspase.
Caspase-3 Inhibitor Screening Kit (BioVision #K153-100)
(§2) Note: Each caspase enzymatic experiment uses the reagents in corresponding kit thereof. Each enzyme was dissolved in 550 μl of the corresponding 2× reaction buffer, sub-packed and stored at −80° C., respectively.
(§3) 1) The compound was diluted to a 200*test concentration with DMSO via the multiple dilution, then to a 2*test concentration with ddH2O, and added to a 384-well experimental plate at 12.5 μl per well. Test compounds and control compounds were tested at 6 concentration points, test concentrations ranging from 1000 nM to 0.32 nM. The ddH2O containing 1% DMSO was added to the 0% inhibition control well, and a high concentration of the control compound was added to the 100% inhibition control well (final concentration: 5 μM).
(§4) 2) 2× reaction buffer containing 10 mM DTT was prepared. The enzyme caspase stock solution was diluted 5-fold with 2× reaction buffer containing 10 mM DTT and added to a 384-well experimental plate at 6.25 μl per well. After being mixed, the enzyme and compounds were incubated at 37° C. for 30 minutes.
(§5) 3) The fluorogenic substrate of the enzyme caspase was diluted 5-fold with 2× reaction buffer containing 10 mM DTT, and then added to a 384-well experimental plate at 6.25 μl per well. The total reaction volume was 25 μl, the final concentration of the substrate was 50 μM, and the final concentration of DMSO was 0.5%. After the substrate was added, the 384-well experimental plate was incubated at 37° C. for 30 minutes.
(§6) 4) The fluorescence intensity (excitation light wavelength was 400 nm, emission light wavelength was 505 nm) was measured by using a multi-function microplate reader. Fluorescence intensity was used to calculate the inhibitory effect of the compounds on Caspase. GraphPad Prism software was used for fitting compound inhibition curves and calculating IC50 values.

Caspase-8 = biological target: T2, Caspase-8 (Homo sapiens, UniProt Q14790); test: In vitro inhibitory activity on Caspase-8 (BioVision Caspase-8 Inhibitor Screening Kit); type: biochemical; conditions: fluorogenic substrate 50 μM; test concentrations 1000 nM to 0.32 nM
T2 construct: purchased BioVision K158-100
T2 sequence (Q14790 217-374 limits assumed): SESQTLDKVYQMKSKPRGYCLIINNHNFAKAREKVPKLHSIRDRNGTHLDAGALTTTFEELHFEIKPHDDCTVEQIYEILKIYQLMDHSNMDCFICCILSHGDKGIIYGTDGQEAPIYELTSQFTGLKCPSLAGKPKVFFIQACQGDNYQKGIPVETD
T2 sequence (Q14790 385-479 limits assumed): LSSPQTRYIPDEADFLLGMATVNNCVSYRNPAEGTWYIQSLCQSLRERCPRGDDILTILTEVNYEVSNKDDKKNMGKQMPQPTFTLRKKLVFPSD
Protocol: as §1
Caspase-8 Inhibitor Screening Kit (BioVision #K158-100)
as §2, §3, §4, §5, §6

Caspase-1 = biological target: T3, Caspase-1 (Homo sapiens, UniProt P29466); test: In vitro inhibitory activity on Caspase-1 (BioVision Caspase-1 Inhibitor Screening Kit); type: biochemical; conditions: fluorogenic substrate 50 μM; test concentrations 1000 nM to 0.32 nM
T3 construct: purchased BioVision K151-100
T3 sequence (P29466 120-297 limits assumed): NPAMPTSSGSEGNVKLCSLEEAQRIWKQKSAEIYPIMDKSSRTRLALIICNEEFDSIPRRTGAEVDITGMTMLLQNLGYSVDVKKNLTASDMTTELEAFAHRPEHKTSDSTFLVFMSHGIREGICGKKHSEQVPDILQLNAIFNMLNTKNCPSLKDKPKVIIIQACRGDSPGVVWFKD
T3 sequence (P29466 317-404 limits assumed): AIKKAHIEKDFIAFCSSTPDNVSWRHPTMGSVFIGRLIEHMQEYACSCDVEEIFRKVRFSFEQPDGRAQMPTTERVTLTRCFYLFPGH
Protocol: as §1
Caspase-1 Inhibitor Screening Kit (BioVision #K151-100)
as §2, §3, §4, §5, §6

[1] = test system: CCl4-induced chronic liver fibrosis model; test: Pharmacodynamic study in CCl4-induced chronic liver fibrosis model; type: in vivo, male C57BL/6 mice; parameters: Total score of liver injury / Ballooning change score: scale not given here
Protocol: The therapeutic effects of the test compound IDN-6556 and the compound of Example 1 in the CCl4-induced chronic liver fibrosis model of male C57BL/6 mice were tested.
Male C57BL/6 mice were randomly divided into 7 groups: pseudo model group (group 1), model group (group 2, solvent p.o., q.d), IDN-6556 (group 3, 3 mg/kg, p.o., bid), IDN-6556 (group 4, 10 mg/kg, p.o., bid), Example 1 (group 5, 3 mg/kg, p.o., bid), Example 1 (group 6, 10 mg/kg, p.o., bid)), Example 1 (group 7, 20 mg/kg, p.o., bid). CCl4 was formulated into a CCl4-olive oil mixed solution according to the doses by using olive oil, modeling is performed by orally administration three times a week for 4 weeks; and the pseudo model group was orally administered with the same volume of olive oil alone. Compounds were orally administrated from the day of modeling, twice a day for 28 days, while the pseudo model group and the model group were orally administered with an equal volume of drug solvent. On the next day after the last administration, the animals were fasted for 6 hours, followed by euthanizing, and the livers were collected. Liver tissues were fixed in 10% formalin solution for histopathological analysis.

[2] = Mouse pharmacokinetic study in plasma and liver after oral administration; type: in vivo, male C57BL/6J mice
Description: This experiment intended to investigate the pharmacokinetics in plasma and liver of male C57BL/6J mice after oral administration of the compounds.
Mice were randomly divided into three groups (3 male mice per group). The compound was formulated into the specified formulation. Oral formulations may be clear or uniform suspensions. Animals were intragastrically administered with a given dose of the preparation, respectively.
Whole blood samples were collected from animals through jugular vein puncture at 3 time points of 30 minutes, 2 hours, and 6 hours after administration, approximately 25 μL per sample; while the liver was collected at each time point.
The plasma samples were added to centrifuge tubes containing anticoagulant, and centrifuged at 4° C., 3000 g for 15 min, and the supernatant plasma was taken and quickly frozen on dry ice and then stored in a refrigerator at −70±10° C. until LC-MS/MS analysis was performed.
The blood outside the liver was sopped up with absorbent paper, and the weight of the liver was weighed, and then placed in liquid nitrogen to freeze. MeOH/15 mM PBS (1:2) at a volume-weight ratio of 1:5 was added thereto, and then the homogenization was performed at 14000 rpm for 2 minutes. It was then stored in a refrigerator at −70±10° C. until LC-MS/MS analysis was performed.
The plasma drug concentration data for the compounds were processed with the non-compartment model using WinNonlin™ Version 6.3.0 (Pharsight, Mountain View, Calif.) pharmacokinetic software. The maximal concentration (Cmax), maximal concentration time (Tmax) and quantitative end time were directly obtained from the plasma concentration-time chart.
The following pharmacokinetic parameters were calculated by using logarithmic linear trapezoidal method: elimination phase half-life (T1/2); the in vivo mean residence time of the drug from point 0 to the last time point (MRT0-last); the in vivo mean residence time of the drug from point 0 to infinite time (MRT0-ifn); the area under time-plasma concentration curve from point 0 to the last time point (AUC0-last); the area under time-plasma concentration curve from point 0 to infinite time (AUC0-inf).
For individual plasma concentrations less than BQL, the one occurred before Tmax was calculated as 0, and the one occurred after Tmax was directly excluded. All parameters and ratios were reported in the forms of three significant digits.
The pharmacokinetic parameters of this experiment were calculated according to the theoretical blood collection times and the theoretical administration concentrations in the protocol. The deviations between the actual administration concentrations and the theoretical concentrations were within the range of ±20%. The deviations between the actual blood collection times and the theoretical blood collection times were in conformity with the relevant SOP (the points within 1 hour after administration were within the range of ±1 min, and the others were within 5% of the theoretical time).

[3] = 3 mg/kg, p.o., bid, 28 days, mean ± sem
[4] = 10 mg/kg, p.o., bid, 28 days, mean ± sem
[5] = different doses, oral twice a day for 28 days, vs model group
[6] = oral administration, 0.5-6 h samples

## C[C@H](NC(=O)c1coc(-c2ccccc2)n1)C(=O)N[C@@H](CC(=O)O)C(=O)COc1c(F)c(F)cc(F)c1F [Example 7]
Caspase-3
  IC50: 0.0202 µM
Caspase-8
  IC50: 0.03 µM
Caspase-1
  IC50: 0.0069 µM

## C[C@H](NC(=O)c1cc(-c2ccccc2)no1)C(=O)N[C@@H](CC(=O)O)C(=O)COc1c(F)c(F)cc(F)c1F [Example 8]
Caspase-3
  IC50: 0.0218 µM
Caspase-8
  IC50: 0.018 µM
Caspase-1
  IC50: 0.0055 µM

## C[C@H](NC(=O)c1cc(-c2ccccc2)on1)C(=O)N[C@@H](CC(=O)O)C(=O)COc1c(F)c(F)cc(F)c1F [Example 9]
Caspase-3
  IC50: 0.0444 µM
Caspase-8
  IC50: 0.0232 µM
Caspase-1
  IC50: 0.0142 µM

## C[C@H](NC(=O)c1cc(-c2cccc(Cl)c2)on1)C(=O)N[C@@H](CC(=O)O)C(=O)COc1c(F)c(F)cc(F)c1F [Example 10]
Caspase-3
  IC50: 0.022 µM
Caspase-8
  IC50: 0.0163 µM
Caspase-1
  IC50: 0.0066 µM

## C[C@H](NC(=O)c1cc(-c2ccccc2C(F)(F)F)on1)C(=O)N[C@@H](CC(=O)O)C(=O)COc1c(F)c(F)cc(F)c1F [Example 11]
Caspase-3
  IC50: 0.03 µM
Caspase-8
  IC50: 0.0226 µM
Caspase-1
  IC50: 0.0092 µM

## C[C@H](NC(=O)c1cc(-c2ccccc2F)on1)C(=O)N[C@@H](CC(=O)O)C(=O)COc1c(F)c(F)cc(F)c1F [Example 12]
Caspase-3
  IC50: 0.021 µM
Caspase-8
  IC50: 0.0179 µM
Caspase-1
  IC50: 0.0067 µM

## C[C@H](NC(=O)C(=O)Nc1ccccc1C(C)(C)C)C(=O)N[C@@H](CC(=O)O)C(=O)COc1c(F)c(F)cc(F)c1F [IDN-6556, reference compound]
[1]; [3]
  Ballooning change score: 0.05 ± 0.04
  Inflammatory cell infiltration: 1.55 ± 0.06
  Percentage of liver fibrosis: 1.84 ± 0.07%
  Total score of liver injury: 1.60 ± 0.07
[1]; [4]
  Ballooning change score: 0.08 ± 0.04
  Percentage of liver fibrosis: 1.86 ± 0.12%
  Total score of liver injury: 1.43 ± 0.12
[1]; [5]
  Effect on CCl4-induced liver tissue damage (in words): significantly inhibit
  Inhibitory effect on liver fibrosis (in words): no clear inhibitory effect
[1]; different doses, oral twice a day for 28 days, vs model group, listed as IND-6556
  Effect on CCl4-induced liver tissue damage (in words): significantly improve
[2]; 0.5 h after oral (intragastric) administration
  Liver drug concentration: 8600 nmol/kg
[2]; 2 h after oral (intragastric) administration
  Liver drug concentration: 930 nmol/kg
[2]; 6 h after oral (intragastric) administration
  Liver drug concentration: 230 nmol/kg
[2]; male, C57BL/6J, plasma, 0.5 h after oral (intragastric) administration, read-out: Plasma drug concentration
  concentration at 0.5 h: 435 nM
[2]; male, C57BL/6J, plasma, 2 h after oral (intragastric) administration, read-out: Plasma drug concentration
  concentration at 2 h: 10.9 nM
[2]; male, C57BL/6J, plasma, 6 h after oral (intragastric) administration, read-out: Plasma drug concentration
  concentration at 6 h: 5.79 nM
[2]; [6]
  liver drug-time curve (area): 9.347 µM·h
  plasma drug-time curve (area): 0.314 µM·h
